Data: US20250057832A1, “USE OF A CLASS OF 1,4-DIHYDRO-NAPHTHYRIDINE DERIVATIVES IN TREATMENT OF TUMORS” (NEURODAWN PHARMACEUTICAL CO., LTD., priority 2021, published 2025)
“Also recorded” adds a separate entry of the source.

What was measured:
[1] = system: neural tumor cells and non-neural tumor systems; assay: Cell viability assay, summary over tumor cell lines (Example 2); assay type: cell-based; conditions: neural and non-neural tumor cells of Table 3, 48 hours; read-out: IC50, range over tumor cell lines
Method: U87MG, T98G, U251, SK-N-SH, A-172 and HepG2 cells were adherently cultured in MEM+10% FBS+1% P/S medium and passaged at 1:3; CT26.WT cells were adherently cultured in RPMI-1640+10% FBS+1% P/S medium and passaged at 1:3; CHO-K1 was cultured adherently in Ham's F-12K+10% FBS+[…] medium and passaged at 1:3.
The above various cells were resuscitated and stably passaged twice. When the cell density reached above 85%, the cells were digested with 0.05% trypsin-EDTA for three minutes, resuspended, plated in a 96-well plate at the corresponding density, and cultured for 24 hours. The cells were treated with drugs at final concentrations of the culture system of 0.41 μM, 1.23 μM, 3.7 μM, 11.1 μM, 33.3 μM, and 100 μM. After 48 hours of drug treatment, cell viability was determined using CellCounting-Lite™ 2.0 kit. The plate was added with reagents at 100 µL/well according to the CellCounting-Lite™ 2.0 kit instructions, and shaken for 10 minutes. The luminescence value (LUM) was read on a multi-function plate reader, and the relative viability of the cells was calculated.
Relative viability of tumor cells V (%)=(LUM-LUMbackground)/(LUMnormal control−LUMbackground)×100%. LUMbackground was the background reading of the complete culture medium well added with the detection reagent. The half inhibitory concentration (IC50) was calculated using GraphPad Prism 8.0.1 statistical software.

[2] = system: T98G subcutaneous transplantation tumor; assay: Human brain glioma T98G subcutaneous model in NOD SCID mice (Example 6); assay type: in vivo, NOD SCID mouse; conditions: S2 3 mg/kg IV
Method: Human brain glioma T98G cells were cultured in vitro. The cells were cultured in EMEM medium added with 10% fetal calf serum, 100 U/mL penicillin and 100 µg/mL streptomycin, in a 37° C. 5% CO2 incubator. After the number of cells reached the required number, the cells were collected. 0.2 mL (10×10^6) of T98G tumor cells (PBS:Matrigel=1:1) were subcutaneously inoculated into the right back of each mouse. The mice were grouped and administered when the average tumor volume reached approximately 147 mm^3. […]
Tumor diameters were measured with vernier calipers twice a week, and tumors were weighed and photographed after the experiment.
1.5 Data Statistics The tumor volume was calculated as follows: V=0.5a×b^2, where a and b represent the long and short diameters of the tumor respectively.
The tumor inhibitory effect was evaluated by TGI (%) or relative tumor proliferation rate T/C (%).
The tumor inhibitory effect was calculated as TGI (%): TGI %=[1-(average tumor volume at the end of administration in a certain treatment group−average tumor volume at the beginning of administration in the treatment group)/(average tumor volume at the end of administration in the vehicle control group−average tumor volume in the vehicle control group at the beginning of treatment)]×100. […]

[3] = system: U87MG-Luc glioblastoma cell in situ transplantation tumor; assay: S2 in U87MG-Luc glioblastoma in situ transplantation tumor model in nude mice (Example 4); assay type: in vivo, BALB/c nude mice; conditions: for Overall survival period: vehicle 31; for Median survival period: vehicle 31.5
Method: Before the transplantation, the U87MG-Luc cells were digested with 0.05%-trypsin-EDTA, resuspended with pre-cooled PBS to 4×10^7 cells/mL, and transferred to ice for later use. The nude mice were anesthetized with isoflurane gas, and then fixed on a stereotaxic machine in a prone position. The scalp of the nude mouse was disinfected with iodophor, and incised sagittally with a scalpel. The incision was cleaned with iodophor. The skull was exposed, and drilled with a skull drill extending 1.0 mm in front of the bregma and deviating the right side 2.0 mm. 5 μL of cell suspension (2×10^5 cells) was manually injected with a 10 μL flat-head microsyringe, with inserting the needle to a depth of 3.5 mm, withdrawing the needle 0.5 mm, and injecting for about 10 minutes. After stopping the injection for 5 minutes, the needle was slowly removed, and the incision was sterilized and sutured. Finally 50,000 units of penicillin was injected intramuscularly to prevent infection.
On days 4, 12, 18, and 25 after the transplantation, 200 μL of 15 mg/mL D-luciferin potassium salt solution, which was filtered and sterilized through a 0.22 μm filter, was injected intraperitoneally. After 10 minutes, IVI chemiluminescence detection (bright field+bioluminescence imaging) was performed using the mouse in vivo imaging system (PE company IVIS Lumina XR). Luorescence intensity was analyzed using Living Image software to obtain fluorescence intensity [p/s], which reflected the size of tumor tissue in the brain of experimental animals.
The survival conditions of experimental animals were monitored, and the animals' death dates were recorded timely.
Quantitative data are expressed as mean±standard error. Each pharmacodynamic index was plotted using GraphPad Prism (8.0.1) software, differences between groups were tested by one-way ANOVA or two-way repeat ANOVA, followed by Fisher's LSD test, and survival analysis was performed by Kaplan-Meier. P<0.05 was defined as a significant difference.

## CCOC(=O)C1=C(C)Nc2nc3c(c(N)c2C1c1ccccc1Cl)CC(C)(C)CC3 (stereo not drawn) [Compound S2]
[1]
  IC50: 4.7 to 14.3 µM
[2]
  Tumor volume growth vs vehicle (FIG. 13A-C): significantly inhibited tumor volume growth; also recorded: inhibited the growth of T98 glioma
  Tumor weight at end of experiment vs control (FIG. 13D): significantly lower than that in the control group; also recorded: reduced the volume and weight of solid tumors
[3]; S2 0.25 mg/kg
  Overall survival period: 32 days
  Median survival period: 32.5 days
[3]; S2 0.5 mg/kg IV
  Survival rate vs vehicle (Log-rank, FIG. 8): significantly increased the survival rate
  Tumor growth after two weeks of administration vs vehicle (FIG. 7): significant inhibitory effect on tumor growth
[3]; S2 0.5 mg/kg IV once a day for 15 days
  Growth of U87MG in situ tumors in the brain vs vehicle (growth curve, FIG. 6): significantly inhibit the growth
[3]; S2 0.5 mg/kg
  Overall survival period: 33 days
  Median survival period: 33.5 days
[3]; S2 1 mg/kg IV
  Survival rate vs vehicle (Log-rank, FIG. 8): significantly increased the survival rate
  Tumor growth after two weeks of administration vs vehicle (FIG. 7): significant inhibitory effect on tumor growth
[3]; S2 1 mg/kg IV once a day for 15 days
  Growth of U87MG in situ tumors in the brain vs vehicle (growth curve, FIG. 6): significantly inhibit the growth
[3]; S2 1 mg/kg IV, after two weeks
  Rank of inhibitory effect on tumor among S2 dose groups: strongest inhibitory effect on tumor
[3]; S2 1 mg/kg
  Overall survival period: 36 days
  Median survival period: 35 days
[3]; administration of S2 for 2 weeks, dose not given in legend
  Growth of U87MG glioma in the brain of nude mice (FIG. 7 legend): inhibited the growth of U87MG glioma
[3]; dose not given in legend
  Survival period of nude mice with orthotopically transplanted brain glioma (FIG. 8 legend): prolonged the survival period
